Source: PubChem BioAssay AID1918936 (Molecular Pharmacology Branch, DTP, NCI, 2023)
pIC50: −log10 of the molar value. Where “and” joins values, the source holds several entries; their conditions need not be identical. Equal entries are not always repeated. One block for each compound: values may come before it.

Tested on: 349418-098-R-PDC complex spheroid viability
Assay: Anticancer human tumor 349418-098-R-PDC patient-derived lung adenocarcinoma cell line growth inhibition
Settings: for viability, T/C: stronger effect = lower value
Procedure, shortened: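 Multicellular complex spheroids of tumor cells with human endothelial cells (HUVEC) and mesenchymal stem cells; the LSD1 inhibitor iadademstat was combined with standard-of-care or investigational agents. Top concentration at or near clinical Cmax, half-log dilutions; final DMSO ≤0.25%.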

[1] = curve of first compound, second compound 0.1 µM
[2] = curve of first compound, second compound 0.316 µM
[3] = curve of first compound, second compound 1 µM
[4] = curve of first compound, second compound 3.16 µM
[5] = curve of first compound, second compound 10 µM
[6] = second compound 0.1 µM, first compound 0.000949 µM
[7] = second compound 0.1 µM, first compound 0.003 µM
[8] = second compound 0.1 µM, first compound 0.00949 µM
[9] = second compound 0.1 µM, first compound 0.03 µM
[10] = second compound 0.1 µM, first compound 0.0949 µM
[11] = second compound 0.1 µM, first compound 0.3 µM
[12] = second compound 0.316 µM, first compound 0.000949 µM
[13] = second compound 0.316 µM, first compound 0.003 µM
[14] = second compound 0.316 µM, first compound 0.00949 µM
[15] = second compound 0.316 µM, first compound 0.03 µM
[16] = second compound 0.316 µM, first compound 0.0949 µM
[17] = second compound 0.316 µM, first compound 0.3 µM
[18] = second compound 1 µM, first compound 0.000949 µM
[19] = second compound 1 µM, first compound 0.003 µM
[20] = second compound 1 µM, first compound 0.00949 µM
[21] = second compound 1 µM, first compound 0.03 µM
[22] = second compound 1 µM, first compound 0.0949 µM
[23] = second compound 1 µM, first compound 0.3 µM
[24] = second compound 3.16 µM, first compound 0.000949 µM
[25] = second compound 3.16 µM, first compound 0.003 µM
[26] = second compound 3.16 µM, first compound 0.00949 µM
[27] = second compound 3.16 µM, first compound 0.03 µM
[28] = second compound 3.16 µM, first compound 0.0949 µM
[29] = second compound 3.16 µM, first compound 0.3 µM
[30] = second compound 10 µM, first compound 0.000949 µM
[31] = second compound 10 µM, first compound 0.003 µM
[32] = second compound 10 µM, first compound 0.00949 µM
[33] = second compound 10 µM, first compound 0.03 µM
[34] = second compound 10 µM, first compound 0.0949 µM
[35] = second compound 10 µM, first compound 0.3 µM
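Also: spheroids exposed to agents for seven days before readout.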
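For viability, T/C in this document: 100% = DMSO vehicle control wells.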

Compound: CC1COCCN1c1cc(C2(S(C)(=N)=O)CC2)nc(-c2ccnc3[nH]ccc23)n1 (stereo not given) + NC1CCC(NC2CC2c2ccccc2)CC1
pIC50 [1]: 6.43 | pIC50 [2]: 6.29 | pIC50 [3]: 6.31 | pIC50 [4]: 6.44 | pIC50 [5]: 6.36 | viability, T/C (second compound 0.1 µM, first compound 0.0316 µM): 115% | viability, T/C (second compound 0.1 µM, first compound 0.1 µM): 115% | viability, T/C (second compound 0.1 µM, first compound 0.316 µM): 55.5% | viability, T/C (second compound 0.1 µM, first compound 1 µM): 16.1% | viability, T/C (second compound 0.1 µM, first compound 3.16 µM): 11% | viability, T/C (second compound 0.1 µM, first compound 10 µM): 8.02% | viability, T/C (second compound 0.316 µM, first compound 0.0316 µM): 120% | viability, T/C (second compound 0.316 µM, first compound 0.1 µM): 101% | viability, T/C (second compound 0.316 µM, first compound 0.316 µM): 72.5% | viability, T/C (second compound 0.316 µM, first compound 1 µM): 19.6% | viability, T/C (second compound 0.316 µM, first compound 3.16 µM): 9.52% | viability, T/C (second compound 0.316 µM, first compound 10 µM): 8.34% | viability, T/C (second compound 1 µM, first compound 0.0316 µM): 114% | viability, T/C (second compound 1 µM, first compound 0.1 µM): 104% | viability, T/C (second compound 1 µM, first compound 0.316 µM): 68.6% | viability, T/C (second compound 1 µM, first compound 1 µM): 19.2% | viability, T/C (second compound 1 µM, first compound 3.16 µM): 10.2% | viability, T/C (second compound 1 µM, first compound 10 µM): 7.6% | viability, T/C (second compound 3.16 µM, first compound 0.0316 µM): 116% | viability, T/C (second compound 3.16 µM, first compound 0.1 µM): 113% | viability, T/C (second compound 3.16 µM, first compound 0.316 µM): 53.6% | viability, T/C (second compound 3.16 µM, first compound 1 µM): 18.1% | viability, T/C (second compound 3.16 µM, first compound 3.16 µM): 10.3% | viability, T/C (second compound 3.16 µM, first compound 10 µM): 7.61% | viability, T/C (second compound 10 µM, first compound 0.0316 µM): 107% | viability, T/C (second compound 10 µM, first compound 0.1 µM): 87.3% | viability, T/C (second compound 10 µM, first compound 0.316 µM): 65.7% | viability, T/C (second compound 10 µM, first compound 1 µM): 15.8% | viability, T/C (second compound 10 µM, first compound 3.16 µM): 9.23% | viability, T/C (second compound 10 µM, first compound 10 µM): 5.82%

Compound: CCc1c2c(nc3ccc(O)cc13)-c1cc3c(c(=O)n1C2)COC(=O)[C@]3(O)CC + NC1CC1c1ccc(-c2cccc(O)c2)cc1
pIC50 [1]: > 9.02 | pIC50 [2]: > 9.02 | pIC50 [3]: > 9.02 | pIC50 [4]: > 9.02 | pIC50 [5]: > 9.02 | viability, T/C [6]: 3.35% | viability, T/C [7]: 2.46% | viability, T/C [8]: 1.32% | viability, T/C [9]: 1.41% | viability, T/C [10]: 1.92% | viability, T/C [11]: 1.96% | viability, T/C [12]: 3.19% | viability, T/C [13]: 2.09% | viability, T/C [14]: 1.26% | viability, T/C [15]: 1.31% | viability, T/C [16]: 1.59% | viability, T/C [17]: 1.98% | viability, T/C [18]: 3.23% | viability, T/C [19]: 2.09% | viability, T/C [20]: 1.23% | viability, T/C [21]: 1.48% | viability, T/C [22]: 1.67% | viability, T/C [23]: 1.92% | viability, T/C [24]: 3.45% | viability, T/C [25]: 2.17% | viability, T/C [26]: 1.37% | viability, T/C [27]: 1.52% | viability, T/C [28]: 1.8% | viability, T/C [29]: 1.56% | viability, T/C [30]: 3.42% | viability, T/C [31]: 1.99% | viability, T/C [32]: 1.52% | viability, T/C [33]: 1.31% | viability, T/C [34]: 1.59% | viability, T/C [35]: 1.47%

Compound: COc1cc(C2c3cc4c(cc3C(OC3OC5COC(C)OC5C(O)C3O)C3COC(=O)C23)OCO4)cc(OC)c1O (stereo not given) + NC1CC1c1ccc(-c2cccc(O)c2)cc1
pIC50 [1]: 7.21 | pIC50 [2]: 7.20 | pIC50 [3]: 7.17 | pIC50 [4]: 7.24 | pIC50 [5]: 7.46 | viability, T/C [8]: 108% | viability, T/C [9]: 86.4% | viability, T/C [10]: 27.3% | viability, T/C [11]: 7.24% | viability, T/C (second compound 0.1 µM, first compound 0.949 µM): 3.83% | viability, T/C (second compound 0.1 µM, first compound 3 µM): 3.5% | viability, T/C [14]: 114% | viability, T/C [15]: 89.4% | viability, T/C [16]: 27.7% | viability, T/C [17]: 7.71% | viability, T/C (second compound 0.316 µM, first compound 0.949 µM): 3.95% | viability, T/C (second compound 0.316 µM, first compound 3 µM): 2.97% | viability, T/C [20]: 97.6% | viability, T/C [21]: 92.7% | viability, T/C [22]: 31.8% | viability, T/C [23]: 6.96% | viability, T/C (second compound 1 µM, first compound 0.949 µM): 3.37% | viability, T/C (second compound 1 µM, first compound 3 µM): 2.89% | viability, T/C [26]: 114% | viability, T/C [27]: 83.5% | viability, T/C [28]: 23.5% | viability, T/C [29]: 7.14% | viability, T/C (second compound 3.16 µM, first compound 0.949 µM): 3.98% | viability, T/C (second compound 3.16 µM, first compound 3 µM): 3.63% | viability, T/C [32]: 95.6% | viability, T/C [33]: 55.4% | viability, T/C [34]: 14.7% | viability, T/C [35]: 5.55% | viability, T/C (second compound 10 µM, first compound 0.949 µM): 3.81% | viability, T/C (second compound 10 µM, first compound 3 µM): 3.47%

Compound: Nc1ccn(C2OC(CO)C(O)C2(F)F)c(=O)n1 (stereo not given)
viability, T/C (compound 0.000949 µM): 5.35% and 15% | viability, T/C (compound 0.003 µM): 5.18% and 4.23% | viability, T/C (compound 0.00949 µM): 4.99% and 4.4% | viability, T/C (compound 0.03 µM): 4% and 4.8% | viability, T/C (compound 0.0949 µM): 4.25% and 4.46% | viability, T/C (compound 0.3 µM): 4.05% and 4.24% | pIC50 (curve of compound): > 9.02

Compound: Nc1ccn(C2OC(CO)C(O)C2(F)F)c(=O)n1 (stereo not given) + NC1CCC(NC2CC2c2ccccc2)CC1
pIC50 [1]: > 9.02 | pIC50 [2]: > 9.02 | pIC50 [3]: > 9.02 | pIC50 [4]: > 9.02 | pIC50 [5]: > 9.02 | viability, T/C [6]: 4.87% | viability, T/C [7]: 4.56% | viability, T/C [8]: 4.21% | viability, T/C [9]: 3.79% | viability, T/C [10]: 4% | viability, T/C [11]: 3.98% | viability, T/C [12]: 4.61% | viability, T/C [13]: 4.85% | viability, T/C [14]: 4.32% | viability, T/C [15]: 4.15% | viability, T/C [16]: 4.03% | viability, T/C [17]: 3.47% | viability, T/C [18]: 4.81% | viability, T/C [19]: 4.98% | viability, T/C [20]: 5.25% | viability, T/C [21]: 4.25% | viability, T/C [22]: 3.86% | viability, T/C [23]: 3.77% | viability, T/C [24]: 5.14% | viability, T/C [25]: 4.79% | viability, T/C [26]: 5.19% | viability, T/C [27]: 4.55% | viability, T/C [28]: 4.08% | viability, T/C [29]: 3.79% | viability, T/C [30]: 4.89% | viability, T/C [31]: 5.31% | viability, T/C [32]: 4.83% | viability, T/C [33]: 4.8% | viability, T/C [34]: 4.86% | viability, T/C [35]: 3.79%

Further lines, with some results ahead:

pIC50 (curve of compound): 7.88 and > 8.50
Compound: CC1COCCN1c1cc(-c2ccnn2C)c2ccnc(-c3ccn[nH]3)c2n1 (stereo not given)
viability, T/C (compound 0.00316 µM): 104% and 25.4% | viability, T/C (compound 0.01 µM): 61.4% and 14.9% | viability, T/C (compound 0.0316 µM): 14.5% and 8.01% | viability, T/C (compound 0.1 µM): 8.8% and 6.27% | viability, T/C (compound 0.316 µM): 7.72% and 5.55% | viability, T/C (compound 1 µM): 5.78% and 4.24%

pIC50 (curve of compound): < 5.00
Compound: CC(C)c1c(-c2ccccc2)nc2c(C#N)c[nH]n2c1=O
viability, T/C (compound 0.0316 µM): 97% and 109% | viability, T/C (compound 0.1 µM): 105% and 109% | viability, T/C (compound 0.316 µM): 101% and 104% | viability, T/C (compound 1 µM): 95.7% and 105% | viability, T/C (compound 3.16 µM): 97.2% and 95.9% | viability, T/C (compound 10 µM): 85.2% and 82.5%

pIC50 (curve of compound): < 7.00
Compound: Cn1ncnc1C1c2n[nH]c(=O)c3cc(F)cc(c23)NC1c1ccc(F)cc1 (stereo not given)
viability, T/C (compound 0.000316 µM): 97.2% and 97.6% | viability, T/C (compound 0.001 µM): 93.6% and 102% | viability, T/C (compound 0.00316 µM): 101% and 98.2% | viability, T/C (compound 0.01 µM): 94.4% and 94.1% | viability, T/C (compound 0.0316 µM): 97.8% and 78.5% | viability, T/C (compound 0.1 µM): 89% and 77.8%

pIC50 (curve of compound): > 9.50
Compound: CC(C)CC(NC(=O)C(Cc1ccccc1)NC(=O)c1cnccn1)B(O)O (stereo not given)
viability, T/C (compound 0.000316 µM): 9.44% and 1.92% | viability, T/C (compound 0.001 µM): 1.9% and 1.46% | viability, T/C (compound 0.00316 µM): 1.14% and 0.84% | viability, T/C (compound 0.01 µM): 0.78% and 0.64% | viability, T/C (compound 0.0316 µM): 0.63% and 0.42% | viability, T/C (compound 0.1 µM): 0.67% and 0.41%
